Experimental findings from patent US11446281B2, “Anti-inflammatory composition comprising acylhydrazone derivative” (KOREA RESEARCH INSTITUTE OF BIOSCIENCE AND BIOTECHNOLOGY, priority 2018, dated 2022) are described below.

The subject of experiment [1] is mouse model having dermatitis induced by oxazolone (back skin). Kind of experiment: Visual identification of dermatitis inhibition, mice with oxazolone-induced dermatitis on back. It is filed as in vivo, HR-1 (hairless) mouse. Particulars: 150 μl at 500 nM applied 5 times a week, total 19 times, FIG. 1. How it is done:
Specifically, 150 μl of 5% oxazolone (4-ethoxymethylene-2-phenyl-2-oxazolin-5-one) was applied to a back skin of a 6-week-old HR-1 (hairless) mouse, and then 150 μl of oxazolone (4-ethoxymethylene-2-phenyl-2-oxazolin-5-one) diluted into 0.1% was applied thereto 3 times a week, 11 times in total. Thus, the back skin inflammatory reaction was induced. Thereafter, 150 μl of the acylhydrazone derivative compound at a concentration of 500 nM was applied thereto 5 times a week, a total of 19 times. […] A negative control treated with only ethanol as a solvent and a positive control treated with only oxazolone were reflected in the test. The number of mice in each test group was maintained at 10 or more, and the experiment was repeated twice.

For experiment [2], the system named is IL-4, IL-13 and IL-2 mRNA. Kind of experiment: qPCR of inflammatory cytokine mRNA in back skin tissue of dermatitis-induced mice. Format: in vivo, HR-1 (hairless) mouse. Particulars: FIG. 2A to 2C; for inflammatory cytokine expression compared with Cyclosporine A group: comparison with test group treated with Cyclosporine A; for expression level of the inflammatory cytokine (IL-4, IL-13, IL-2 mRNA) in skin tissue: vs positive control treated with only oxazolone, qPCR. From the text:
Inflammatory cytokines most associated with development of dermatitis such as atopic dermatitis are known as IL-4 and IL-13 which are secreted primarily from Th2 T cells. To further identify the anti-inflammatory effect of the acylhydrazone derivative compounds in mice in which dermatitis is induced by oxazolone. A mRNA level of IL-2 as secreted from Th2 T cells and mRNA levels of IL-4 and IL-13 as the cytokines most closely related to the development of dermatitis in the inflammatory tissue were quantified.
Specifically, a skin tissue was collected from the dermatitis-induced mice produced in Example 1 and crushed using a tissue disruptor. The crushed tissue powder was dissolved in a solution of Trizol reagent (Sigma company), and RNA was extracted therefrom using an RNeasy mini kit (Qiagen company). The extracted RNA was reverse transcribed into cDNA using an ImProm-II™ Reverse Transcription kit (Promega company). Then, using a CFX96™ Real-Time PCR Detection System (Bio-Rad company), levels of the cytokines present in the skin tissue was measured based on a qPCR (quantitative PCR) method.

Experiment [3] relates to K14 (Keratin 14), K1 (Keratin 1), FLG (Filaggrin gene) mRNA. In words: qPCR of epidermal hyperplasia markers in back skin tissue of dermatitis-induced mice. Particulars: FIG. 3B to 3D. Format: in vivo, HR-1 (hairless) mouse. From the text: When dermatitis is induced, a pathological symptom such as epidermal hyperplasia which thickens the skin is induced.
Background: In qPCR the cycle at which signal appears reflects the starting amount.

The subject of experiment [4] is mouse model having dermatitis induced by oxazolone (ear). In words: Visual identification of dermatitis inhibition, mice with oxazolone-induced dermatitis in ear. It is filed as in vivo. The note with it: 20 μl at 500 nM, total 5 times, 30 minutes after oxazolone, FIG. 4. As for the experimental part:
Specifically, 150 μl of 3% concentration of oxazolone was applied to an abdominal skin of a 6-week-old mouse to induce an immune response. 20 μl of the same compound diluted to 0.5% concentration was applied to the mouse's ear, total 5 times a day to induce an inflammatory reaction. Thereafter, at 30 minutes after the oxazolone application, 20 μl of each of the acylhydrazone derivative compounds was applied thereto at a concentration of 500 nM and total 5 times.
Moreover, the negative control treated only with ethanol as a solvent and the positive control treated only with oxazolone were reflected in the experiment. The number of mice in each test group was maintained at 10 or more, and the experiment was repeated twice.

For experiment [5], the system named is ear skin tissue of dermatitis-induced mice. Kind of experiment: Histopathological analysis (Hematoxylin and Eosin) of ear skin tissue. Particulars: H&E staining, FIG. 5. It is filed as in vivo, mouse. From the text: For pathological observation of the skin after completion of the application experiment, an ear skin tissue of each mouse was collected and stained with Hematoxylin and Eosin.

The subject of experiment [6] is IL-4, IL-13 and IL-2 mRNA. In words: qPCR of inflammatory cytokine mRNA in ear skin tissue of dermatitis-induced mice. It is filed as in vivo, mouse. The note with it: FIG. 6A to 6C. From the text: Inflammatory cytokines most associated with the development of dermatitis, such as atopic dermatitis are known as IL-4 and IL-13 which are secreted primarily from Th2 T cells. In order to further identify the anti-inflammatory effect of the acylhydrazone derivative compound in mice with dermatitis induced by oxazolone in Example 4, an ear skin tissue was collected to quantify the mRNA levels of IL-2 secreted from Th2 T cells, along with those of IL-4 and IL-13.
Specifically, ear skin tissues were collected from dermatitis-induced mice prepared in Example 4 and crushed using a tissue disruptor. The crushed tissue powder was dissolved in a solution of Trizol reagent (Sigma company), and RNA was extracted using an RNeasy mini kit (Qiagen company). After reverse transcription of the extracted RNA with a cDNA using ImProm-II™ Reverse Transcription kit (Promega company), a level of cytokines present in a skin tissue was measured using a CFX96 Real-Time PCR Detection System (Bio-Rad company) via a qPCR method.

Experiment [7] has as its system K14 and K1 mRNA. Kind of experiment: qPCR of epidermal hyperplasia markers in ear skin tissue of dermatitis-induced mice. It is filed as in vivo, mouse. Particulars: FIG. 8A and 8B. From the text:
When dermatitis is induced, pathological symptoms such as epidermal hyperplasia which thickens the skin are induced.

In experiment [8] the test system is phosphorylation of p65 (RelA), NF-κB signaling pathway. Kind of experiment: Western blot of phosphorylated p65 in RAW macrophage cell line (NF-κB signaling pathway). It is filed as cell-based, mice. Particulars: RAW cells, with NF-κB inducing factors (tumor necrosis factor-α, lipopolysaccharide, or the like), 12 to 24 hours; Western blotting; FIG. 9. As for the experimental part:
To further identify the mechanism of action involved in the anti-inflammatory effect by the acylhydrazone derivative compound, RAW cell lines as mice-derived macrophage immune cell lines were incubated. We observed the effect of the compound according to the present disclosure on NF-κB (nuclear factor kappa-light-chain-enhancer of activated B cells) signaling pathway involved in the production of inflammatory cytokines. The NF-κB signaling pathway is involved in inflammatory reactions. In particular, it is known that when phosphorylation of p65 (RelA) is induced, phosphorylated p65 moves to the nucleus of immune cells and induces an expression of cytokines that cause inflammatory reactions.
Specifically, after incubating a predetermined amount of RAW cells (5×10^5 to 10×10^5 cells/well for a 6-well plate) in DMEM medium (containing 10% fetal calf serum), WCI-1004, WCI-1015, and WCI-1031 compounds together with factors (tumor necrosis factor-α, lipopolysaccharide, or the like) inducing the NF-κB signal transduction were applied thereto for 12 to 24 hours. A proteolytic inhibitor and a dephosphorylation inhibitor was added to RIPA lysis and extraction buffer (Thermofisher company). Protein was extracted from the RAW cells. The Western blotting process used a method commonly used in the technical field to which the present disclosure belongs, and an antibody specific to phosphorylated p65 employed a product from Cell Signaling Technology company.
On the technique in general: A western blot detects proteins with antibodies after separation by electrophoresis.

Take `Cc1c(/C=N/NC(=O)c2cc3c(ccc4ccccc43)o2)c2ccccc2n1C` [WCI-1015]: in experiment [1], the “skin condition (visual), skin inflammatory response” value was “skin conditions very similar to those of the negative control”. In experiment [2], the “inflammatory cytokine expression compared with Cyclosporine A group” value is on record as “lower levels of inflammatory cytokine expression than that in the skin tissue of the test group treated with Cyclosporine A” and the “expression level of the inflammatory cytokine (IL-4, IL-13, IL-2 mRNA) in skin tissue” value (“expression level … in skin tissue” for short) is reported as “significantly reduced”. Besides, the “mRNA expression levels of K14, K1 and FLG (epithelial hyperplasia)” value (from here on “mRNA expression levels of K14”) in experiment [3] is given as “restored to normal levels”. The “skin condition (visual), skin inflammatory reaction” value in experiment [4] was “a skin condition very similar to that of the negative control”. For the same molecule, in experiment [5], the “entire thickness of the skin” value is given as “reduced to a thickness very similar to that of the negative control” and the “thickness of the epithelium” value is “reduced to a thickness very similar to that of the negative control”. Further, the “level of cytokine expression (IL-4, IL-13, IL-2 mRNA) in ear skin tissue” value (“level of cytokine expression” below) in experiment [6] is on record as 50 % of the cytokine expression level of the positive control. Besides, the “expression levels of K14 and K1 (epithelial hyperplasia)” value (“expression levels of K14 and K1” below) in experiment [7] is given as “restored to a normal level”. In addition, the “phosphorylation of p65 (RelA)” value in experiment [8] is “effectively suppressed”.
In the case of `CCOC(=O)Cn1c(C)c(/C=N/NC(=O)c2cc3c(ccc4ccccc43)o2)c2ccccc21` [WCI-1004, ethyl(2-methyl-3(E)-{[(naphtho[2,1-b]furan-2-ylcarbonyl)hydrazono]methyl}-1H-indole-1-yl)acetate], in experiment [1], the “skin condition (visual), skin inflammatory response” value is recorded as “skin conditions very similar to those of the negative control”. Further, in experiment [2], the “inflammatory cytokine expression compared with Cyclosporine A group” value was “lower levels of inflammatory cytokine expression than that in the skin tissue of the test group treated with Cyclosporine A” and the “expression level … in skin tissue” value is on record as “significantly reduced”. Besides, the “mRNA expression levels of K14” value in experiment [3] is reported as “restored to normal levels”. The “skin condition (visual), skin inflammatory reaction” value in experiment [4] was “a skin condition very similar to that of the negative control”. Further, in experiment [5], the “entire thickness of the skin” value is “reduced to a thickness very similar to that of the negative control” and the “thickness of the epithelium” value is listed as “reduced to a thickness very similar to that of the negative control”. Besides, in experiment [6], the “level of cytokine expression” value is recorded as 50 % of the cytokine expression level of the positive control. Further, in experiment [7], the “expression levels of K14 and K1” value was “restored to a normal level”. Further, the “phosphorylation of p65 (RelA)” value in experiment [8] is on record as “effectively suppressed”.
Turning to `COC(=O)Cn1c(C)c(/C=N/NC(=O)c2cc3c(ccc4ccccc43)o2)c2ccccc21` [WCI-1031, methyl(E)-2-(2-methyl-3-((2-(naphtho[2,1-b]furan-2-carbonyl)hydrazono)methyl)-1H-indole-1-yl)acetate], the “skin condition (visual), skin inflammatory response” value in experiment [1] is listed as “skin conditions very similar to those of the negative control”. In experiment [2], the “inflammatory cytokine expression compared with Cyclosporine A group” value is recorded as “lower levels of inflammatory cytokine expression than that in the skin tissue of the test group treated with Cyclosporine A” and the “expression level … in skin tissue” value is recorded as “significantly reduced”. In addition, the “mRNA expression levels of K14” value in experiment [3] is listed as “restored to normal levels”. Moreover, in experiment [4], the “skin condition (visual), skin inflammatory reaction” value is reported as “a skin condition very similar to that of the negative control”. In experiment [5], the “entire thickness of the skin” value is reported as “reduced to a thickness very similar to that of the negative control” and the “thickness of the epithelium” value is “reduced to a thickness very similar to that of the negative control”. Further, the “level of cytokine expression” value in experiment [6] is on record as 50 % of the cytokine expression level of the positive control. For the same molecule, the “expression levels of K14 and K1” value in experiment [7] is reported as “restored to a normal level”. Also, the “phosphorylation of p65 (RelA)” value in experiment [8] was “effectively suppressed”.
